In PubChem BioAssay (NCI):
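The compound was tested at five concentrations on cells cultured in 96-well plates, with a 48-hour exposure period. TGI: total growth inhibition.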

Columns and labels:
Test in all cases: NCI anticancer screen, dose series, 48 h
OVCAR-5 ovarian = tested on: OVCAR-5 ovarian
CAKI-1 renal = tested on: CAKI-1 renal
T-47D breast = tested on: T-47D breast
NCI-H23 lung = tested on: NCI-H23 lung
SNB-19 CNS = tested on: SNB-19 CNS
MDA-MB-435 = tested on: MDA-MB-435
RXF 393 renal = tested on: RXF 393 renal
M14 melanoma = tested on: M14 melanoma
SF-539 CNS = tested on: SF-539 CNS
LOX IMVI melanoma = tested on: LOX IMVI melanoma

SMILES	TGI (OVCAR-5 ovarian) [µM]	TGI (CAKI-1 renal) [µM]	TGI (T-47D breast) [µM]	TGI (NCI-H23 lung) [µM]	TGI (SNB-19 CNS) [µM]	TGI (MDA-MB-435) [µM]	TGI (RXF 393 renal) [µM]	TGI (M14 melanoma) [µM]	TGI (SF-539 CNS) [µM]	TGI (LOX IMVI melanoma) [µM]
OCCO[P+]1(OCCO)n2c3ccc2C(c2ccccc2)=C2C=CC(=N2)C(c2ccccc2)=c2ccc(n21)=C(c1ccccc1)C1=NC(=C3c2ccccc2)C=C1	1.28	2.59	2.09	0.327	1.96	0.132	0.563	0.278	–	–
NCCCCNC1(c2cc3ccccc3s2)CCCCC1	19.2	28.1	5.23	28.9	21.1	3.49	14.9	3.8	4.59	4.03
NC(=O)NCCCC(NC(=O)OCCCCCn1ccc(=O)[nH]c1=O)C(=O)O (stereo unspecified)	> 100	> 100	> 100	> 100	> 100	> 100	> 100	> 100	> 100	> 100
NC(=O)CS(=O)CC(N)C(=O)O (stereo unspecified)	> 100	> 100	> 100	> 100	> 100	> 100	> 100	> 100	–	> 100
CCOc1cc(C2SCC(=O)N2c2nc3cc4sc(N5C(=O)CSC5c5ccc(O)c(OCC)c5)nc4cc3s2)ccc1O (stereo unspecified)	> 100	> 100	> 100	> 100	> 100	> 100	> 100	> 100	> 100	> 100
COc1cc(-c2nc3nc(N4CCN(C)CC4)ccc3[nH]2)c(OC)c2[nH]c(COC(C)=O)nc12	> 100	> 100	> 100	> 100	> 100	> 100	86.7	34.4	35.4	73.6
O=C(O)C1SCCS1	> 100	–	> 100	> 100	> 100	> 100	–	> 100	–	> 100
CCOC(=O)C(C)c1nc2cc(N3CCN(C)CC3)c(F)cc2[nH]c1=O (stereo unspecified)	> 100	> 100	> 100	> 100	> 100	> 100	> 100	> 100	> 100	–
COC(=O)c1cccc(C(=O)OC)c1	> 100	> 100	–	> 100	> 100	–	> 100	> 100	–	> 100
CCOC12SC(=Nc3ccc(C)cc3)NN1C(=S)N(C)N=C2C (stereo unspecified)	> 100	–	–	> 100	> 100	–	> 100	> 100	> 100	> 100
CC(C)C1=CC23CCC4C(C)(C(=O)O)CCCC4(C)C2CC1C(C(=O)O)C3C(=O)O (stereo unspecified)	> 100	> 100	> 100	> 100	> 100	> 100	> 100	> 100	–	> 100
